Experimental data reported in the kinase profiling compilation of Christmann-Franck et al. (2016).

What was measured:
Assay in all cases: radiometric filter-binding kinase assay, Kinase HotSpot
Details in all cases: compound 0.5 µM; ATP 10 µM
STK39 (human) = STK39 (human) (UniProt Q9UEW8)
NTRK2 (human) = NTRK2 (human) (UniProt Q16620)
ABL2 (human) = ABL2 (human) (UniProt P42684)
MINK1 (human) = MINK1 (human) (UniProt Q8N4C8)
LCK (human) = LCK (human) (UniProt P06239)
GSG2 (human) = GSG2 (human) (UniProt Q8TF76)
EPHB1 (human) = EPHB1 (human) (UniProt P54762)
OXSR1 (human) = OXSR1 (human) (UniProt O95747)
CDK4 CCND1 (human) = CDK4 CCND1 (human) (UniProt P24385+P11802)
MARK1 (human) = MARK1 (human) (UniProt Q9P0L2)
NEK4 (human) = NEK4 (human) (UniProt P51957)
FRK (human) = FRK (human) (UniProt P42685)
NUAK2 (human) = NUAK2 (human) (UniProt Q9H093)
CSNK2A2 (human) = CSNK2A2 (human) (UniProt P19784)
TAOK3 (human) = TAOK3 (human) (UniProt Q9H2K8)
STK17A (human) = STK17A (human) (UniProt Q9UEE5)
CDK1 CCNA2 (human) = CDK1 CCNA2 (human) (UniProt P06493+P20248)
KIT (human) = KIT (human) (UniProt P10721)
CDK2 CCNA2 (human) = CDK2 CCNA2 (human) (UniProt P24941+P20248)
PIM1 (human) = PIM1 (human) (UniProt P11309)
BRSK2 (human) = BRSK2 (human) (UniProt Q8IWQ3)
PRKCB1 (human) = PRKCB1 (human) (UniProt P05771)
CHEK2 (human) = CHEK2 (human) (UniProt O96017)
CSNK1E (human) = CSNK1E (human) (UniProt P49674)
GRK6 (human) = GRK6 (human) (UniProt P43250)
MAP4K2 (human) = MAP4K2 (human) (UniProt Q12851)
FLT3 (human) = FLT3 (human) (UniProt P36888)
CSK (human) = CSK (human) (UniProt P41240)
EPHA2 (human) = EPHA2 (human) (UniProt P29317)
AKT1 (human) = AKT1 (human) (UniProt P31749)
MKNK2 (human) = MKNK2 (human) (UniProt Q9HBH9)
AURKB (human) = AURKB (human) (UniProt Q96GD4)
PRKD1 (human) = PRKD1 (human) (UniProt Q15139)
ACVRL1 (human) = ACVRL1 (human) (UniProt P37023)
MAPKAPK2 (human) = MAPKAPK2 (human) (UniProt P49137)
IGF1R (human) = IGF1R (human) (UniProt P08069)
[1] = target: TYK2 JH1 catalytic (human) (UniProt P29597)
RPS6KA3 KD1 KD2 (human) = RPS6KA3 KD1 KD2 (human) (UniProt P51812)
HIPK4 (human) = HIPK4 (human) (UniProt Q8NE63)
CSNK1G2 (human) = CSNK1G2 (human) (UniProt P78368)
MARK3 (human) = MARK3 (human) (UniProt P27448)
PIM3 (human) = PIM3 (human) (UniProt Q86V86)

Sequence of CDK1 CCNA2 (human) (P06493 whole entry, looked up): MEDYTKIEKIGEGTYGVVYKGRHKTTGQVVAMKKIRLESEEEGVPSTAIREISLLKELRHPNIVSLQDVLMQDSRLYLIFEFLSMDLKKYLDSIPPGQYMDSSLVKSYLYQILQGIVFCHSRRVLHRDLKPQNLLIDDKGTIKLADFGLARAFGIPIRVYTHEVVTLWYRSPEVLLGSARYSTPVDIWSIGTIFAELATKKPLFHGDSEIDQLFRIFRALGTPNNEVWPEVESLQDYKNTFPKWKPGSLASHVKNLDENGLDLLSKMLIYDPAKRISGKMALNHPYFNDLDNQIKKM
Sequence of CDK1 CCNA2 (human) (P20248 whole entry, looked up): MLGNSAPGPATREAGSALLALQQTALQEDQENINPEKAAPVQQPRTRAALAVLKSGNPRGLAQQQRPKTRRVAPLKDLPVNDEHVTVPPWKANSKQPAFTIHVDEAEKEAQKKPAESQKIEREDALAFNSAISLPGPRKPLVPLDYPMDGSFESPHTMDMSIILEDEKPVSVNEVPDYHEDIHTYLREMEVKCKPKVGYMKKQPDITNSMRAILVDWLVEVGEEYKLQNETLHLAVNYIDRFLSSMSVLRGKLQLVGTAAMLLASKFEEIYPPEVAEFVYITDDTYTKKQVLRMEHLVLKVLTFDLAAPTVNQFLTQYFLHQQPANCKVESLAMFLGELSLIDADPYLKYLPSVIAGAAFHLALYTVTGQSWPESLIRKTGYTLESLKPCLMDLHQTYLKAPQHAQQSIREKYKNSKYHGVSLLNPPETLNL
Sequence of CHEK2 (human) (O96017 whole entry, looked up): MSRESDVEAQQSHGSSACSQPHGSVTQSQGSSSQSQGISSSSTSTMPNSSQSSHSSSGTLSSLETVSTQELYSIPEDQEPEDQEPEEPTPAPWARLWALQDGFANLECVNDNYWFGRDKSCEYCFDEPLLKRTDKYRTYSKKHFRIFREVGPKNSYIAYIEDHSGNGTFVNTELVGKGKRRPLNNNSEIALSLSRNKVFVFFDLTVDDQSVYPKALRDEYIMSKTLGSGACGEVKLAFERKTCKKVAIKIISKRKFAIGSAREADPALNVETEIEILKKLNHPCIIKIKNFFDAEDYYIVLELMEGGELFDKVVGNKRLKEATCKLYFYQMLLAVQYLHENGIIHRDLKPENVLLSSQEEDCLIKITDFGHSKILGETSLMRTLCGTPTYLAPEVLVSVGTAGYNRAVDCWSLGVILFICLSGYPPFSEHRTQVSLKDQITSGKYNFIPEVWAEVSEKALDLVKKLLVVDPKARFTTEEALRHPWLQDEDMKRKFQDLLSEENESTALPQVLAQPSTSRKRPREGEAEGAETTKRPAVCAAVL
Sequence of GSG2 (human) (Q8TF76 whole entry, looked up): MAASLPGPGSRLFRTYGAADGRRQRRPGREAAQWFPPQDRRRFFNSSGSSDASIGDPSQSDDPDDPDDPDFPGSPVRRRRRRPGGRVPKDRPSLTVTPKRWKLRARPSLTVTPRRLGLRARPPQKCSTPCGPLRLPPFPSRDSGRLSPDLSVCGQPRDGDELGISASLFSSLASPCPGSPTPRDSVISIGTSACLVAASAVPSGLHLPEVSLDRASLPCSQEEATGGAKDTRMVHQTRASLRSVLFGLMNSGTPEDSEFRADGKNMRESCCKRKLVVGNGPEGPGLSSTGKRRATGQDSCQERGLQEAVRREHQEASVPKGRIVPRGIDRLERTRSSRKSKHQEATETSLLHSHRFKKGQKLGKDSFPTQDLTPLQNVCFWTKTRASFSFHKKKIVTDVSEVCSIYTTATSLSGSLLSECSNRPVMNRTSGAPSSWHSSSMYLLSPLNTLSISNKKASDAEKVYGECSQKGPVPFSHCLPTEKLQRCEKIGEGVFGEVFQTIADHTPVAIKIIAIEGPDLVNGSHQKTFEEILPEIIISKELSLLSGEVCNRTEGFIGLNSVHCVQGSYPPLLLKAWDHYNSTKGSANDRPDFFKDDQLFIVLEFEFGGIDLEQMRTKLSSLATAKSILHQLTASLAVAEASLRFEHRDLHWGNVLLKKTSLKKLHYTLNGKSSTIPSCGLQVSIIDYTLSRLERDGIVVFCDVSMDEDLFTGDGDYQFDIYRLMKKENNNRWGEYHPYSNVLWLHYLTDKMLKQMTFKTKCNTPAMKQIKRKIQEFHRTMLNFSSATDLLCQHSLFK
Sequence of ACVRL1 (human) (P37023 whole entry, looked up): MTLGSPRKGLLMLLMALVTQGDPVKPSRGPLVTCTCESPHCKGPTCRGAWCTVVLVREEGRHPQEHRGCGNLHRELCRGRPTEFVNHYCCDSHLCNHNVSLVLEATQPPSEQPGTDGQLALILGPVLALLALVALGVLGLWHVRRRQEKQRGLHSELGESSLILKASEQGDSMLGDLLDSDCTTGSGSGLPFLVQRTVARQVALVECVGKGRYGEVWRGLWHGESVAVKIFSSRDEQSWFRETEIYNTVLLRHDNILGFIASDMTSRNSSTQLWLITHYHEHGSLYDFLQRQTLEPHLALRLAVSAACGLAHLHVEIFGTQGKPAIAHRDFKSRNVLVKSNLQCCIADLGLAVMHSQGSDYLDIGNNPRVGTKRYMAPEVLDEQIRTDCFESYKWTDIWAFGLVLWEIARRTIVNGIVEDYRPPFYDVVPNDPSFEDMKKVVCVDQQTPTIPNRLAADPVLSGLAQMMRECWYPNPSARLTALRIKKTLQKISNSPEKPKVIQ
Sequence of EPHA2 (human) (P29317 whole entry, looked up): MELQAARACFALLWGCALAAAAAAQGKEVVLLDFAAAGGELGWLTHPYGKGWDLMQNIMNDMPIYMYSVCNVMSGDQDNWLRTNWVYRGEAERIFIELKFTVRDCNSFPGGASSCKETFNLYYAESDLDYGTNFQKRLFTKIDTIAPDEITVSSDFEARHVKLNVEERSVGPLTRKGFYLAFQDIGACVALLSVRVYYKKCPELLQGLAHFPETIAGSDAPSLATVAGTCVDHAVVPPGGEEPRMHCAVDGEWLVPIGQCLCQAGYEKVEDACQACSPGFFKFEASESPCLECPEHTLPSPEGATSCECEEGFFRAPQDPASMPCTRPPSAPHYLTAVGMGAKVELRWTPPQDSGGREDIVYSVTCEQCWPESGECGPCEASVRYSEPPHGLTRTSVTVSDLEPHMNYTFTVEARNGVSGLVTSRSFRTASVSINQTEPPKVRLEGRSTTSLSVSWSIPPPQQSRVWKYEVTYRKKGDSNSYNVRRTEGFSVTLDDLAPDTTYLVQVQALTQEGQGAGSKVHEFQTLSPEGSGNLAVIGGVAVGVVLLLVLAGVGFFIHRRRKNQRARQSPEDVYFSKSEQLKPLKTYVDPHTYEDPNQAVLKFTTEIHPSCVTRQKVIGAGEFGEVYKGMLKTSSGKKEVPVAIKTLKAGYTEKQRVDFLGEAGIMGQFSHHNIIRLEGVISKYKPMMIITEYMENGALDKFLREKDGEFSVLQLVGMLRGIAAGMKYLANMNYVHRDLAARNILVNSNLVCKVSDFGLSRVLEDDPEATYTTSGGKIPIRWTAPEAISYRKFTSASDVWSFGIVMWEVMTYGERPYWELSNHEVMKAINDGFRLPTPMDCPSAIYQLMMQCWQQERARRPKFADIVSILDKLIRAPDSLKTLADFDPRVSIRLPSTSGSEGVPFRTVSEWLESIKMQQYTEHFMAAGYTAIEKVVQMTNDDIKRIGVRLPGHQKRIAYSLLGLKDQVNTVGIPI
Sequence of GRK6 (human) (P43250 whole entry, looked up): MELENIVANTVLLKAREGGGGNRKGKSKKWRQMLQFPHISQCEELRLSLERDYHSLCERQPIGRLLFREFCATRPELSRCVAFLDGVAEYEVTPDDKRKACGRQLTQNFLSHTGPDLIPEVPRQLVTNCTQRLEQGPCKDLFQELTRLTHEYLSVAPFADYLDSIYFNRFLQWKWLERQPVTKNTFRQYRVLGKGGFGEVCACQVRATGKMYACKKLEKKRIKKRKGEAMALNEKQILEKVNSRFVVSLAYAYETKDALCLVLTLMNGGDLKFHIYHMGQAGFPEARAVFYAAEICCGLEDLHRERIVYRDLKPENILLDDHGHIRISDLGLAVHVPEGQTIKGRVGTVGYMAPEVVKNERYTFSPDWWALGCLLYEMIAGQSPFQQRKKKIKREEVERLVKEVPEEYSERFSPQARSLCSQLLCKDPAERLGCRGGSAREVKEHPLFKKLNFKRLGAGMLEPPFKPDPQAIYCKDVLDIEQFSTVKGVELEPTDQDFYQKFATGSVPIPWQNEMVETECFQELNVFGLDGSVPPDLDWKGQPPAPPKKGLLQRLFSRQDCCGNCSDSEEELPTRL
Sequence of LCK (human) (P06239 whole entry, looked up): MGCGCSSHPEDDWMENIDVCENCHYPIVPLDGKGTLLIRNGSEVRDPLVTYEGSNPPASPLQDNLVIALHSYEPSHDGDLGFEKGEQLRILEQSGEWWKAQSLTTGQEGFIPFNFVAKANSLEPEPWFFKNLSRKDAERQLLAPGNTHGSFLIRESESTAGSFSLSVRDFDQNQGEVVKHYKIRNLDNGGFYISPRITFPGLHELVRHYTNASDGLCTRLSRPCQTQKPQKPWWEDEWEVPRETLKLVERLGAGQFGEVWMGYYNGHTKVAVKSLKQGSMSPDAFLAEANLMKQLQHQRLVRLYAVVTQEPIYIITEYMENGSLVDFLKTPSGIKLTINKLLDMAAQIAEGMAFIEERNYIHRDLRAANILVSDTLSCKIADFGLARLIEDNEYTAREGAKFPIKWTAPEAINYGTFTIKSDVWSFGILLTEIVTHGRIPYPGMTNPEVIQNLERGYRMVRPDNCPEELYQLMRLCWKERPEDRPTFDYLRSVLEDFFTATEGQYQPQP
Sequence of CDK2 CCNA2 (human) (P20248 whole entry, looked up, other chains not shown): as the sequence (P20248 whole entry, looked up) above

Question: Which results are given for O=C(Nc1cccc(Nc2cc(Nc3cccc(C(F)(F)F)c3)ncn2)c1)C1CC1?
Answer: residual activity (STK39 (human)): 94.1%; residual activity (NTRK2 (human)): 100%; residual activity (ABL2 (human)): 100%; residual activity (MINK1 (human)): 95.9%; residual activity (LCK (human)): 100%; residual activity (GSG2 (human)): 96.4%; residual activity (EPHB1 (human)): 100%; residual activity (OXSR1 (human)): 110%; residual activity (CDK4 CCND1 (human)): 103%; residual activity (MARK1 (human)): 102%; residual activity (NEK4 (human)): 90.6%; residual activity (FRK (human)): 102%; residual activity (NUAK2 (human)): 103%; residual activity (CSNK2A2 (human)): 94.9%; residual activity (TAOK3 (human)): 98.7%; residual activity (STK17A (human)): 99.2%; residual activity (CDK1 CCNA2 (human)): 97.9%; residual activity (KIT (human)): 99.9%; residual activity (CDK2 CCNA2 (human)): 99.5%; residual activity (PIM1 (human)): 104%; residual activity (BRSK2 (human)): 95.8%; residual activity (PRKCB1 (human)): 93.2%; residual activity (CHEK2 (human)): 99.5%; residual activity (CSNK1E (human)): 98.1%; residual activity (GRK6 (human)): 98.3%; residual activity (MAP4K2 (human)): 116%; residual activity (FLT3 (human)): 97.9%; residual activity (CSK (human)): 102%; residual activity (EPHA2 (human)): 104%; residual activity (AKT1 (human)): 102%; residual activity (MKNK2 (human)): 83.8%; residual activity (AURKB (human)): 98.9%; residual activity (PRKD1 (human)): 100%; residual activity (ACVRL1 (human)): 114%; residual activity (MAPKAPK2 (human)): 104%; residual activity (IGF1R (human)): 105%; residual activity [1]: 102%; residual activity (RPS6KA3 KD1 KD2 (human)): 105%; residual activity (HIPK4 (human)): 101%; residual activity (CSNK1G2 (human)): 99.1%; residual activity (MARK3 (human)): 105%; residual activity (PIM3 (human)): 133%
